This note sets out measurements from patent US10881639B2, “Use of composition of multivitamin in preparing drug for stimulating gastrointestinal system motility” (Zensun (Shanghai) Science & Technology, Co., Ltd., priority 2015, dated 2021).

Where a name gives a salt, the structure may show the parent alone.

The experiment relates to mice with 2.5 mg/kg loperamide-induced constipation. Briefly: Small intestinal propulsive rate of a charcoal solution in mice with 2.5 mg/kg loperamide-induced constipation, with positive controls (Example 2). The format is in vivo, mouse. Conditions: for Effect on the small intestinal propulsive rate (%) vs model group, in words: positive drugs at 1× dose, loperamide-induced constipation mouse model; for Propulsive distance of the charcoal solution / Small intestinal propulsive rate: positive drugs intragastric: itopride 30.75, naloxone 5.0, domperidone 6.16, mosapride citrate 3.075 mg/kg, loperamide 2.5 mg/kg s.c., 20 min after charcoal. The source says:
1.2 Experimental Animals Species: mouse Strains: C57BL/6 Gender and quantity: Female, 65 Animal week-age: 8-9 weeks Weight range: 19.0-25.0 g Animal sources: Shanghai Lingchang Biotechnology Co. LTD Animal certificate number: 2013001804393 2. Experimental Design and Methods 2.1 Test Grouping:
Experimental animals were randomly divided into 8 groups (8 animals per group) by the random number table method.
2.2 Reagent Preparation 1) 0.5% CMC—Na solution: 2.0 g of CMC—Na powder was weighed and 300 ml ultra-pure water was slowly added thereto; the mixture was subjected to magnetic stirring until it was completely dissolved to reach a constant volume of 400 ml, thereby preparing a clear solution of 0.5%, which was stored at 4° C. for later use. 2) 1% Tween-80 in saline: 40 ml saline was accurately measured using a measuring cylinder and added into a 50 ml centrifuge tube; 400 μl Tween-80 was measured using a pipette and added into the centrifuge tube; and the mixture was subjected to vortex oscillation to be homogeneous and was then placed at room temperature for later use. 3) 5% charcoal solution: 100 g of Arabic gum was accurately weighed and 800 ml water was added thereto; and the solution was boiled until it was transparent. 50 g of activated carbon powder was weighed and added into the above solution and the mixture was boiled for three times. After the solution was cool, water was added to reach a constant volume of 1000 ml. 4) Group for the composition comprising B vitamins (9 components) and C vitamins (5×): one tablet of the composition comprising B vitamins (9 components) and C vitamins was taken; after its grinding, 19.5 ml of 0.5% CMC—Na was added; and the mixture was subjected to oscillation to become homogeneous, thereby forming a stable suspension. It was used immediately after its preparation. 5) Group for the composition comprising B vitamins (9 components) and C vitamins (1×): 2 ml of the suspension of the composition comprising B vitamins (9 components) and C vitamins (5×) was taken and 8 ml of 0.5% CMC—Na was added; and the mixture was subjected to oscillation to become homogeneous, thereby forming a stable suspension. It was used immediately after its preparation. 6) Domperidone: 32.52 ml of 0.5% CMC—Na was added after grinding of one domperidone tablet; and the mixture was subjected to oscillation to become homogeneous, thereby forming a stable suspension. It was used immediately after its preparation. 7) Mosapride citrate: 32.52 ml of 0.5% CMC—Na was added after grinding of one mosapride citrate tablet; and the mixture was subjected to oscillation to become homogeneous, thereby forming a stable suspension. It was used immediately after its preparation. […] It was used immediately after its preparation. […] It was used immediately after its preparation. 10) Loperamide: 5.0 mg of loperamide was accurately weighed and 20 ml of a saline solution with 1.0% Tween 80 was added thereto; after being subjected to oscillation to become homogeneous, the mixture was subjected to ultrasound for at least 5 minutes. This reagent was used immediately after it was prepared. 2.3 Test Methods
After 30 minutes of administration, the control group was injected subcutaneously with the saline solution containing 1.0% Tween 80 while the other groups were injected subcutaneously with a loperamide solution in an injection volume of 10 ml/kg. After a subcutaneous injection for 30 minutes, an intragastric administration of the charcoal solution was performed at an administration volume of 10 ml/kg^[1,2,3].
2.4 Observation Index Small intestinal propulsive rate of the charcoal solution (%)=(the propulsive distance of the charcoal solution/total length of the small intestine)×100
Twenty minutes after an intragastric administration of the charcoal solution, the animal was sacrificed by cervical dislocation and its abdominal cavity was immediately opened to separate the mesentery.

Consider `O=c1[nH]c2ccccc2n1CCCN1CCC(n2c(=O)[nH]c3cc(Cl)ccc32)CC1` [Domperidone], for which the “Effect on the small intestinal propulsive rate (%) vs model group, in words” value (“Effect … (%) vs model group, in words” below) is “do not have the improvement effect”; the “Propulsive distance of the charcoal solution” value (from here on “Propulsive distance”) turned out to be 4.0 ± 1.1 cm; the “Small intestinal propulsive rate” value is given as 20.1 ± 5.7%. Also, the “Small intestinal propulsive rate” value (listed as domperidone) turned out to be 19.5±3.8%.

`COc1ccc(C(=O)NCc2ccc(OCCN(C)C)cc2)cc1OC` [Itopride hydrochloride]: the “Effect … (%) vs model group, in words” value was “do not have the improvement effect” and the “Propulsive distance” value was found to be 5.0 ± 1.2 cm. Where the note is “hydrochloride”, the “Small intestinal propulsive rate” value is listed as 26.4 ± 7.0%. Also, the “Small intestinal propulsive rate” value (listed as itopride hydrochloride, hydrochloride) is on record as 26.4±7.0%.

As for `CCOc1cc(N)c(Cl)cc1C(=O)NCC1CN(Cc2ccc(F)cc2)CCO1` (stereo not drawn) [Mosapride Citrate, Mosapride citrate], the “Effect … (%) vs model group, in words” value is “do not have the improvement effect”; the “Propulsive distance” value came to 11.7 ± 2.1 cm; the “Small intestinal propulsive rate” value was 60.7 ± 12.1 %. Also, the “Small intestinal propulsive rate” value (listed as mosapride citrate) came out at 20.1±5.7%.

On to `C=CCN1CC[C@]23c4c5ccc(O)c4O[C@H]2C(=O)CC[C@@]3(O)[C@H]1C5` [Naloxone], for which the “Effect … (%) vs model group, in words” value is reported as “also has the improvement effect”; the “Propulsive distance” value is recorded as 3.9 ± 0.8 cm; the “Small intestinal propulsive rate” value is 19.5 ± 3.8%.
